The text below walks through data of patent US20260274814A1, “THIENYL COMPOUNDS FOR THE TREATMENT OF A CENTRAL NERVOUS SYSTEM DISEASE OR DISORDER” (Coreterra Therapeutics, Inc., priority 2023, published 2026).

This experiment deals with mice. Put plainly: Neuropharmacological Assay (SmartCube): automated behavioral signature of compound-treated mice compared with a database of reference drug classes. As to conditions: for minimal effective dose: Mus musculus, ip. The class given is in vivo. In short, it runs like this:
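i.p. dosing 15 min pre-test (NMP/PEG/propylene glycol vehicle); 3 doses, 3.0 mg/kg reported. Output = class-match probability per behavioural effect. Potency runs 0.3, 1, 3, 10 mpk (range adjusted as needed); MED = dose with ≥45% total activity.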

Setting [1] is: SmartCube probability class, 3.0 mg/kg dose, i.p. 15 min before the behavioral test.
Setting [2] is: SmartCube probability class, 3.0 mg/kg dose, i.p. 15 min before the behavioral test, hydrochloride, 3 mg/kg.
[3] abbreviates: dose having 45% or more total activity in SmartCube, i.p., if only one dose was tested, that dose is shown, read-out: MED (minimal effective dose).
Setting [4] is: probability that activity matches this class of agents, 3.0 mg/kg i.p., 15 min before test.
Setting [5] is: probability that activity matches this class of agents, 3.0 mg/kg i.p., 15 min before test, 3 mg/kg.
[6] abbreviates: dose having 45% or more total activity in SmartCube, i.p., if only one dose was tested, that dose is shown.

Each structure is given as a SMILES string. Structures can show the parent of a compound that is named as a salt. Where two headings read alike, the source gives them in different places.

On to `NC1COc2c(C3CC3)csc2C1` (single isomer, unassigned) [Compound 329, 3-cyclopropyl-6,7-dihydro-5H-thieno[3,2-b]pyran-6-amine hydrochloride], for which the minimal effective dose (minimal effective dose: dose having 45% or more total activity in SmartCube, i.p., if only one dose was tested, that dose is shown, read-out: MED) is less than 3 mg/kg. In addition, under setting [1], the AG result is recorded as “ND (^ <4%)”, the AN entry is on record as “ND (^ <4%)”, the AP entry was “ND (^ <4%)” and the AX entry is “ND (^ <4%)”. Besides, under setting [1], the CE entry is reported as “ND (^ <4%)”, the HL entry was “ND (^ <4%)”, the MS entry is on record as “ND (^ <4%)” and the PS result is reported as “ND (^ <4%)”. Also, the SH entry under setting [1] is listed as “ND (^ <4%)”. Further, under setting [2], the AD result is “++++ (≥74%)” and the UK result was “ND (^ <4%)”.
As for `NC1COc2c(C3CC3)csc2C1` (single isomer, unassigned) [Compound 330, 3-cyclopropyl-6,7-dihydro-5H-thieno[3,2-b]pyran-6-amine hydrochloride], under setting [1], the AG result is reported as “ND (^ <4%)”, the AN result is on record as “ND (^ <4%)”, the AP result is “ND (^ <4%)” and the AX entry is “ND (^ <4%)”. For the same compound, under setting [1], the CE result is on record as “ND (^ <4%)”, the HL entry is recorded as “ND (^ <4%)”, the MS entry was “ND (^ <4%)” and the PS entry is on record as “ND (^ <4%)”. The SH entry under setting [1] was “ND (^ <4%)”. Moreover, under setting [2], the AD entry is “ND (^ <4%)” and the UK entry is reported as “+ (≥4%)”. The compound further yielded an MED (minimal effective dose: dose having 45% or more total activity in SmartCube, i.p., if only one dose was tested, that dose is shown, hydrochloride) greater than 3 mpk.
Take `CNC1CCc2sc(F)cc2C1` (single isomer, unassigned; enantiomer 1) [Compound 98, 2-fluoro-N-methyl-4,5,6,7-tetrahydrobenzothiophen-5-amine hydrochloride enantiomer 1]: the minimal effective dose under setting [3] is 3 mg/kg. Under setting [4], the AD result is listed as “ND (^ <4%)”, the AG entry is “ND (^ <4%)”, the AN entry is “ND (^ <4%)” and the CE entry is listed as “ND (^ <4%)”. Further, under setting [4], the HL entry is listed as “ND (^ <4%)”, the MS result was “ND (^ <4%)”, the PS result was “ND (^ <4%)” and the SH entry was “ND (^ <4%)”. Moreover, under setting [5], the AP entry is “++ (≥24%)”, the AX entry is reported as “+ (≥4%)” and the UK result is “++ (≥24%)”.
Consider `CNC1(C)CCc2cscc2C1` (single isomer, unassigned; enantiomer 1) [Compound 101, N, 5-dimethyl-6,7-dihydro-4H-2-benzothiophen-5-amine hydrochloride enantiomer 1], for which the “MED (minimal effective dose)” value under setting [6] is recorded as 3 mpk. Besides, under setting [4], the AD result was “++++ (≥74%)”, the AG result is listed as “ND (^ <4%)”, the AN entry is given as “ND (^ <4%)” and the AP entry was “ND (^ <4%)”. Under setting [4], the AX result was “ND (^ <4%)”, the CE entry is recorded as “ND (^ <4%)”, the HL result was “ND (^ <4%)” and the MS result is “ND (^ <4%)”. Also, under setting [4], the SH entry is recorded as “ND (^ <4%)” and the UK entry is recorded as “ND (^ <4%)”. For the same compound, under setting [5], the PS entry is listed as “ND (^ <4%)”.
With `CNC1CCc2c(C)sc(C(F)(F)F)c2C1` (single isomer, unassigned; enantiomer 1) [Compound 104, N, 1-dimethyl-3-(trifluoromethyl)-4,5,6,7-tetrahydro-2-benzothiophen-5-amine hydrochloride enantiomer 1], the minimal effective dose under setting [3] came out at 3 mg/kg. Under setting [4], the AD result is “ND (^ <4%)”, the AG entry was “ND (^ <4%)”, the AN result is “ND (^ <4%)” and the AX result is listed as “ND (^ <4%)”. For the same compound, under setting [4], the CE entry is recorded as “ND (^ <4%)”, the HL result was “ND (^ <4%)”, the MS result is “ND (^ <4%)” and the PS result is on record as “ND (^ <4%)”. In addition, under setting [4], the SH result is recorded as “ND (^ <4%)”. Moreover, under setting [5], the AP result is listed as “++ (≥24%)” and the UK result is reported as “++ (≥24%)”.
For `CNC1CCc2c(C(F)(F)F)sc(C)c2C1` (single isomer, unassigned; enantiomer 1) [Compound 106, N, 3-dimethyl-1-(trifluoromethyl)-4,5,6,7-tetrahydro-2-benzothiophen-5-amine hydrochloride enantiomer 1], the “MED (minimal effective dose)” value under setting [6] came to 3 mpk. Besides, under setting [4], the AG entry is reported as “ND (^ <4%)”, the AN entry is listed as “ND (^ <4%)”, the AP entry is reported as “ND (^ <4%)” and the AX entry is given as “ND (^ <4%)”. Under setting [4], the CE result was “ND (^ <4%)”, the HL result is listed as “ND (^ <4%)”, the MS result is given as “ND (^ <4%)” and the PS result is “ND (^ <4%)”. Also, under setting [4], the SH result is “ND (^ <4%)”. In addition, under setting [5], the AD entry is given as “+ (≥4%)” and the UK entry is “++ (≥24%)”.
Take `CNC1CCc2sc(F)cc2C1` (single isomer, unassigned; enantiomer 2) [Compound 99, 2-fluoro-N-methyl-4,5,6,7-tetrahydrobenzothiophen-5-amine hydrochloride enantiomer 2]: the “MED (minimal effective dose)” value under setting [6] is 3 mpk. In addition, under setting [4], the AD result is reported as “ND (^ <4%)”, the AG entry is given as “ND (^ <4%)”, the AN result is reported as “ND (^ <4%)” and the CE result is listed as “ND (^ <4%)”. Further, under setting [4], the HL entry is “ND (^ <4%)”, the MS entry was “ND (^ <4%)”, the PS result is “ND (^ <4%)” and the SH result was “ND (^ <4%)”. Besides, under setting [5], the AP entry is “ND (^ <4%)”, the AX result is reported as “ND (^ <4%)” and the UK result was “+++ (≥49%)”.
As to `CNC1(C)CCc2cscc2C1` (single isomer, unassigned; enantiomer 2) [Compound 102, N, 5-dimethyl-6,7-dihydro-4H-2-benzothiophen-5-amine hydrochloride enantiomer 2], the “MED (minimal effective dose)” value under setting [6] is 1 mpk. Moreover, under setting [4], the AD result is reported as “++++ (≥74%)”, the AG entry is given as “ND (^ <4%)”, the AN entry is given as “ND (^ <4%)” and the AP entry is given as “ND (^ <4%)”. Moreover, under setting [4], the AX entry is reported as “ND (^ <4%)”, the CE result is on record as “ND (^ <4%)”, the HL entry is listed as “ND (^ <4%)” and the MS entry was “ND (^ <4%)”. Moreover, under setting [4], the SH entry is reported as “ND (^ <4%)” and the UK result was “ND (^ <4%)”. Besides, the PS entry under setting [5] is recorded as “+ (≥4%)”.
For the compound `CNC1CCc2c(C)sc(C(F)(F)F)c2C1` (single isomer, unassigned; enantiomer 2) [Compound 105, N, 1-dimethyl-3-(trifluoromethyl)-4,5,6,7-tetrahydro-2-benzothiophen-5-amine hydrochloride enantiomer 2], the “MED (minimal effective dose)” value under setting [6] is listed as greater than 3 mpk. Besides, under setting [4], the AD entry is recorded as “ND (^ <4%)”, the AG entry is reported as “ND (^ <4%)”, the AN result was “ND (^ <4%)” and the AX entry is reported as “ND (^ <4%)”. Besides, under setting [4], the CE result is “ND (^ <4%)”, the HL result was “ND (^ <4%)”, the MS entry is given as “ND (^ <4%)” and the PS result is on record as “ND (^ <4%)”. Also, under setting [4], the SH result is given as “ND (^ <4%)”. Further, under setting [5], the AP result is given as “ND (^ <4%)” and the UK result is “ND (^ <4%)”.
Turning to `CNC1CCc2c(C(F)(F)F)sc(C)c2C1` (single isomer, unassigned; enantiomer 2) [Compound 107, N, 3-dimethyl-1-(trifluoromethyl)-4,5,6,7-tetrahydro-2-benzothiophen-5-amine hydrochloride enantiomer 2], under setting [6], the “MED (minimal effective dose)” value stood at 10 mpk. In addition, under setting [4], the AG result is recorded as “ND (^ <4%)”, the AN result is listed as “ND (^ <4%)”, the AP result is “ND (^ <4%)” and the AX entry was “ND (^ <4%)”. Under setting [4], the CE result is “ND (^ <4%)”, the HL entry is “ND (^ <4%)”, the MS entry is recorded as “ND (^ <4%)” and the PS result is on record as “ND (^ <4%)”. Also, the SH result under setting [4] is on record as “ND (^ <4%)”. Further, under setting [5], the AD result was “ND (^ <4%)” and the UK result is on record as “ND (^ <4%)”.
For the compound `CNC1Cc2cscc2C1.Cl` [Compound 21, N-methyl-5,6-dihydro-4H-cyclopenta[c]thiophen-5-amine hydrochloride], the minimal effective dose under setting [3] worked out at 3 mg/kg. Besides, under setting [4], the AD result was “ND (^ <4%)”, the AG entry is recorded as “ND (^ <4%)”, the AN entry is recorded as “ND (^ <4%)” and the AP entry is listed as “ND (^ <4%)”. Under setting [4], the AX result was “ND (^ <4%)”, the CE entry was “ND (^ <4%)”, the HL entry is on record as “ND (^ <4%)” and the MS entry is on record as “ND (^ <4%)”. For the same compound, under setting [4], the PS entry is listed as “ND (^ <4%)”, the SH entry is “ND (^ <4%)” and the UK entry is “+++ (≥49%)”.
For `CNC1CC=Cc2ccsc2C1.Cl` (stereo not drawn) [Compound 24, N-methyl-7,8-dihydro-6H-cyclohepta[b]thiophen-7-amine hydrochloride], the minimal effective dose under setting [3] was 3 mg/kg. Also, under setting [4], the AD entry is reported as “ND (^ <4%)”, the AG entry is recorded as “ND (^ <4%)”, the AN result was “ND (^ <4%)” and the AP entry was “ND (^ <4%)”. Under setting [4], the AX entry was “ND (^ <4%)”, the CE entry is recorded as “ND (^ <4%)”, the HL entry is on record as “ND (^ <4%)” and the MS entry is listed as “ND (^ <4%)”. Under setting [4], the PS entry was “ND (^ <4%)”, the SH result is recorded as “+++ (≥49%)” and the UK result is given as “ND (^ <4%)”.
